# Laboratory results taken from patent publication US20080039410A1, “Inositol 1,4,5-Trisphosphate Receptor Mutants and Uses Thereof” (priority 2004, published 2008).
# Where “and” joins values, the source holds several entries; their conditions need not be identical. Identical values can stand only once. Entries after “also recorded” stand apart in the source; their conditions may differ.
# Test system: S2− InsP3R-1
# Assay: Potentiation of CCh-induced Ca2+ release after PKA activation (forskolin), S2− InsP3R-1 constructs in DT-40 3ko cells
# Type: cell-based, rat
# Settings: for effect of forskolin treatment on CCh-induced [Ca^2+]i peak: threshold CCh; for Ca^2+ release after PKA activation: S2 − InsP3R-1 constructs, Table 2
# Experimental: DT-40 cells lacking all three InsP3 receptor subtypes DT-40 3ko were transfected using electroporation, 350 V and 950 μF. 2×10^7 cells were co-transfected with 25 μg of the InsP3R cDNA, 25 μg of the muscarinic type 3 (M3) receptor, and 4 μg of the red fluorescent protein plasmid pHcRed1-N1. Cells were incubated with DNA in 500 μL of Optimem media on ice for 10 minutes. The cell/DNA mixture was electroporated, incubated on ice for 30 minutes, brought up to 5 ml with Optimem and placed in a 5% C02 incubator at 39° C. for 5 hours. The cells were then centrifuged and resuspended in 12 ml of complete RPMI media. Transfection efficiency was typically ˜20%. Experiments were performed within 32 hours of transfection.
# Transfected DT-40 3ko cells were washed once in a HEPES-buffered physiological saline solution (HEPES-PSS) containing (in mM) 5.5 glucose, 137 NaCl, 0.56 MgCl2, 4.7 KCl, 1 Na2HPO4, 10 HEPES (pH 7.4), 1.2 CaCl2 and 1% w/v Bovine Serum Albumin. Cells were then resuspended in BSA HEPES-PSS with 1 μM Fura-2 (AM), placed on a 15 mm glass coverslip in a low volume perfusion chamber (Warner Instruments) and allowed to adhere for 30 minutes at room temperature. Cells were perfused continually for 10 minutes with HEPES-PSS before experimentation to allow Fura-2 de-esterification. A field of cells for each experiment was chosen that contained a wide range of transfection efficiency based upon the intensity of red fluorescence emitted when excited at 560 nm. [Ca^2+]i imaging was performed essentially as previously described using an inverted epifluorescence Nikon microscope with a 40× oil immersion objective lens (numerical aperture, 1.3). Cells were excited alternately with light at 340 and 380 nm (±10 mn bandpass filters, Chroma) using a monochrometer (TILL Photonics). Fluorescence images were captured and digitized with a digital camera driven by TILL Photonics software. Images were captured every 2 seconds with an exposure of 35 ms and no binning. 340/380 ratio images were calculated online and stored immediately to hard disk.
# The effects of treatment were determined by normalizing the peak change in fluorescence ratio by stimulation following forskolin or 8-Br cGMP exposure to that of stimulation in control HEPES-PSS. Thus, pooled data represents a normalized fold increase over control for the treated trial. Two tailed heteroscedastic t-tests with P values<0.05 were considered to have statistical significance.
# Similar experimental paradigms were employed to assess the effect of PKA-induced phosphorylation on a homogeneous population of S2^− InsP3R-1.
# The effects of treatment were determined by normalizing the peak change in fluorescence ratio by stimulation following forskolin or 8-Br-cGMP exposure to that of stimulation in control HEPES-PSS. Thus, pooled data represent a normalized fold increase over control for the treated trial. In all cases where statistical significance is indicated, two-tailed heteroscedastic t tests were performed. P values<0.05 were considered to indicate statistical significance and are denoted by an asterisk in the figures.
# The enhanced apparent sensitivity of individual phosphomimetic mutants was essentially equal and intermediate between the sensitivity of the S2−WT and S2−EE mutations. […] To address this possibility directly, experiments were performed evaluating the effects of activating endogenous PKA in cells expressing S2−SE or S2−ES to mimic prior phosphorylation of an individual site. […] To test this, experiments were performed to determine the phosphorylation state of the various mutants after raising cAMP levels. These experiments were performed in HEK-293 cells because of the high transfection efficiency and low endogenous levels of InsP3R-1 (47, 99). […]
Substance,effect of forskolin treatment on CCh-induced [Ca^2+]i peak (20 μM forskolin),Ca^2+ release after PKA activation,"effect on subsequent CCh-induced Ca^2+ release (100 nM, 500 nM or 1 μM forskolin)",fold potentiation of Ca^2+ release (5 μM forskolin (threshold concentration)),"fold increase in CCh-induced Ca^2+ release in the presence of forskolin (20 μM forskolin, Fura-2, listed as wild-type S2^− InsP3R-1)","effect of forskolin treatment on CCh-induced [Ca^2+]i peak (20 μM forskolin, listed as S2^− InsP3R-1)","effect of forskolin treatment on CCh-induced [Ca^2+]i peak (20 μM forskolin, listed as wild type S2^− InsP3R-1)","effect of forskolin treatment on CCh-induced [Ca^2+]i peak (20 μM forskolin, listed as wild-type S2^− InsP3R-1)"
G1690A: InsP3R-1 S2− variant with glycine to alanine substitution at position 1690 (nucleotide binding site mutant),strikingly absent; also recorded: fails to potentiate,,,,,,,
S2−EE: phosphomimetic S1589E/S1755E mutant of the short splice variant,no potentiation,No change/NT,,,,,,
S2−ES: phosphomimetic short splice variant S1589E,no potentiation,No change/NT,,,,,,
S2−SE: phosphomimetic short splice variant of S1755E,no potentiation,No change/NT,,,,,,
"S2−WT: wild-type rat type-1 InsP3 receptor, peripheral short S2− splice variant (SEQ ID NO: 17)",dramatic potentiation; also recorded: markedly potentiated,Enhanced,failed to enhance,1.26±0.21 fold,~3 fold and ~4 fold,potentiated Ca^2+ release,enhanced CCh stimulated Ca^2+ release,marked potentiation
